Data set [1] has as its target T1, Human plasma kallikrein (Homo sapiens (Human), UniProt P03952). The data set is described as follows: Determination of the IC50 for plasma kallikrein. It is filed as biochemical. The following applies: 25° C., substrate H-DPro-Phe-Arg-AFC; read-out: IC50 (human PKal). As for the experimental part: Human plasma kallikrein (Protogen) was incubated at 25° C. with the fluorogenic substrate H-DPro-Phe-Arg-AFC and various concentrations of the test compound. Residual enzyme activity (initial rate of reaction) was determined by measuring the change in […] at 410 nm and the IC50 value for the test compound was determined.

In the next data set the target is Human FXIa (Homo sapiens (Human), UniProt P03951). The data set is described as follows: Determination of the % inhibition / IC50 for FXIa. In kind it is biochemical. Particulars: 25° C., substrate Z-Gly-Pro-Arg-AFC. As to the method: FXIa inhibitory activity in vitro was determined using standard published methods (see e.g. Johansen et al., Int. J. Tiss. Reac. 1986, 8, 185; Shori et al., Biochem. Pharmacol., 1992, 43, 1209; Sturzebecher et al., Biol. Chem. Hoppe-Seyler, 1992, 373, 1025). […]
Chain of Human FXIa (P03951 388-625): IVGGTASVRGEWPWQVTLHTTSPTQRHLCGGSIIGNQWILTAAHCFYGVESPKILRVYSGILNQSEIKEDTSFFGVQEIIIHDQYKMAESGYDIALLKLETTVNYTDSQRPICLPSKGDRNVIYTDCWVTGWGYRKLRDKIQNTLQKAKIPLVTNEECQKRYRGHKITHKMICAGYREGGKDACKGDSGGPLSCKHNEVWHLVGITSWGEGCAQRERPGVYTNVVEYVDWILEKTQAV
Chain of Human FXIa (P03951 19-387): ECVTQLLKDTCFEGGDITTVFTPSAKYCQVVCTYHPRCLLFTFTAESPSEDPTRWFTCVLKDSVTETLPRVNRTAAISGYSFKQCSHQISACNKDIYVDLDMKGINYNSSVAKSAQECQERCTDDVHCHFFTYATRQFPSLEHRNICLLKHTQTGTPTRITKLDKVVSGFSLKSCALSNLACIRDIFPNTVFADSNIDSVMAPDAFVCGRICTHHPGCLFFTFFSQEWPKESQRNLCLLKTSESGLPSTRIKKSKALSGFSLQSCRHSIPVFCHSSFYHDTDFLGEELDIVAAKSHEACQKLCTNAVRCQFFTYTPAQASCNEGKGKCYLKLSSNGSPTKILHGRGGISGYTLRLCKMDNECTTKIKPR

Data set [2] can be described thus: Intrinsic clearance in rat liver microsomes. It is filed as in vitro ADME. Particulars: rat liver microsomes 0.5 mg/mL, 5 μM test compound, 37° C.; read-out: rat liver microsome (Clint μL/min/mg protein). As to the method: (§1) Rat or human liver microsomes (0.5 mg/mL; Corning) were incubated with 5 μM test compound at 37° C. on a shaking platform (150 rpm). Samples were taken at 0, 6, 12, 18, 24 and 60 min and test compound concentrations were determined by LCMS against a calibration curve.
A general note: Liver microsomes are a subcellular fraction often used to study metabolism.

The target of the next data set is Human KLK1 (Homo sapiens (Human), UniProt P06870). Description: Determination of the IC50 for KLK1. In kind it is biochemical. Particulars: 25° C., substrate H-DVal-Leu-Arg-AFC. As for the experimental part: Human KLK1 (Callbiochem) was incubated at 25° C. with the fluorogenic substrate H-DVal-Leu-Arg-AFC and various concentrations of the test compound. Residual enzyme activity (initial rate of reaction) was determined by measuring the change in […] at 410 nm and the IC50 value for the test compound was determined.
Chain of Human KLK1 (P06870 25-262): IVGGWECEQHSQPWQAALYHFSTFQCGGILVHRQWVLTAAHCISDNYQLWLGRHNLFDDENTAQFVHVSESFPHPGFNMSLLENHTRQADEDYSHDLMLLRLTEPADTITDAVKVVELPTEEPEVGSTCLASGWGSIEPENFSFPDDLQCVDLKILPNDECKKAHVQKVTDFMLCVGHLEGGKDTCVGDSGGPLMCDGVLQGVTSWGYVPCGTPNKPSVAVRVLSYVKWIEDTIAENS

In a further data set the target is Human Factor XIIa (Homo sapiens (Human), UniProt P00748). The data set is described as follows: Factor XIIa inhibitory activity in vitro. In kind it is biochemical. The following applies: 25° C., substrate H-DPro-Phe-Arg-AFC; read-out: IC50 (human FXIIa). As to the method:
Human Factor XIIa (Enzyme Research Laboratories) was incubated at 25° C. with the fluorogenic substrate H-DPro-Phe-Arg-AFC and various concentrations of the test compound. Residual enzyme activity (initial rate of reaction) was determined by measuring the change in […] at 410 nm and the IC50 value for the test compound was determined.

Data set [3] in a line: Intrinsic clearance in human liver microsomes. It is filed as in vitro ADME. The following applies: human liver microsomes 0.5 mg/mL, 5 μM test compound, 37° C.; read-out: Human liver microsome (Clint μL/min/mg protein). As to the method: as §1
Data set [4] in a line: In vitro permeability, Caco-2 model for oral absorption. Particulars: human, apical to basolateral, 50 μM test compound, 37° C. In kind it is in vitro ADME. As to the method:
In vitro permeability was determined using the Caco-2 model for oral absorption. The methodology was adapted from standard published methods (Wang Z, Hop C. E., Leung K. H. and Pang J. (2000) J Mass Spectrom 35(1); 71-76). The Caco-2 monolayers were established in a Biocoat™ HTS fibrillar collagen 24 well multiwell insert system (1.0 μm, PET membrane, Corning 354803) in which 200,000 cells were seeded into each insert and maintained over 3 days before being utilised in the permeability assay. For the assay, 50 μM test compound is added to the apical side of the inserts and incubated for 1 hour at 37° C. on a shaking platform (120 rpm). Apical to basolateral transport was determined by measuring the test article in both compartments by LCMS following the 1 hour incubation. The integrity of the Caco-2 monolayers was confirmed by two methods, (i) comparison of pre- and post-experiment transepithelial electrical resistance (TEER) and, (ii) assessment of Lucifer Yellow flux.
(Passage across Caco-2 layers is used to estimate intestinal permeability.)

The target of data set [5] is T1, Human plasma kallikrein. Description: Determination of the Ki for plasma kallikrein (mixed-model inhibition). The following applies: for Ki: human plasma kallikrein, mixed-model inhibition equation; for Alpha: parameter of the mixed-model equation indicating mechanism of inhibition. It is filed as biochemical. As to the method: Plasma kallikrein inhibitory activity in vitro was determined using standard published methods (e.g. Johansen et al., Int. J. Tiss. Reac. 1986, 8, 185; Shori et al., Biochem. Pharmacol., 1992, 43, 1209; Sturzebecher et al., Biol. Chem. Hoppe-Seyler, 1992, 373, 1025). […]. Residual enzyme activity (initial rate of reaction) was determined by measuring the change in fluorescence at 410 nm. The Ki value for the test compound was determined using the mixed-model inhibition equation (based on Equation 3.2 in: RA Copeland, Evaluation of Enzyme Inhibitors in Drug Discovery, Wiley 2005) in GraphPad Prism. The mixed model equation includes competitive, uncompetitive and noncompetitive inhibition as special cases and the parameter of Alpha to indicate mechanism of inhibition.

T1 sequence (P03952 391-638): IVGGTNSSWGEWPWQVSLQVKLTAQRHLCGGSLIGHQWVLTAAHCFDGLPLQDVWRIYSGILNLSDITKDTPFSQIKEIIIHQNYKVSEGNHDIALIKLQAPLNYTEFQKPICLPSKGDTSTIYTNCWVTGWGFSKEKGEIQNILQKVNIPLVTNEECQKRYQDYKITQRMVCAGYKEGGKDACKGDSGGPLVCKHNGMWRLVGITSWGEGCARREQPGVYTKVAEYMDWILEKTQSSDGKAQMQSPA
T1 sequence (P03952 20-390): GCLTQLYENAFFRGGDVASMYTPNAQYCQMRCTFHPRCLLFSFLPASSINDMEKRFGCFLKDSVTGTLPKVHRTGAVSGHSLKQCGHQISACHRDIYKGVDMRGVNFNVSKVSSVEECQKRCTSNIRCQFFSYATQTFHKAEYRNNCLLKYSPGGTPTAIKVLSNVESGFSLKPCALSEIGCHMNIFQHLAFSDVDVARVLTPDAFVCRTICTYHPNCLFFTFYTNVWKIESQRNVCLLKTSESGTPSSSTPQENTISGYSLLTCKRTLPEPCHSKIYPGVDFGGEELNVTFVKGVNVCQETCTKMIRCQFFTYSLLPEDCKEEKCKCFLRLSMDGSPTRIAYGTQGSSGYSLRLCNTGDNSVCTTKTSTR
Chain of Human Factor XIIa (P00748 373-615): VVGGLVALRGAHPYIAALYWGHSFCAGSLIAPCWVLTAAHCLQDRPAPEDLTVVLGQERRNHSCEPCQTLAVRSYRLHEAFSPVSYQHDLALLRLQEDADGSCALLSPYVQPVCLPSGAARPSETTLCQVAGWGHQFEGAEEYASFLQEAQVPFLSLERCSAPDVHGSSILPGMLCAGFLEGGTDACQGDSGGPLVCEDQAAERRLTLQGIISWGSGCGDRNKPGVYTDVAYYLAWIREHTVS

One may read the IC50 as the point on the concentration scale where inhibition reaches its midpoint. Usually Papp stands for the rate of passage across a membrane or cell layer, normalised by area and donor concentration. A low value points to slow passage. Take `COCc1nn(Cc2ccc(Cn3ccccc3=O)cc2)cc1C(=O)NCc1cc(F)ccc1-n1cnnn1` [Example 49, N-{[5-fluoro-2-(1,2,3,4-tetrazol-1-yl)phenyl]methyl}-3-(methoxymethyl)-1-({4-[(2-oxopyridin-1-yl)methyl]phenyl}methyl)pyrazole-4-carboxamide]: the concentration for half-maximal inhibition (IC50) was 0.0159 µM at Human plasma kallikrein [1], above 40 µM against Human FXIa, above 4 µM on Human KLK1 and above 4 µM on Human Factor XIIa. Further, the results for the microsomal CLint at 5 μM in data set [2] and in data set [3] were 36 µL/min/mg and 18 µL/min/mg, respectively. The apparent permeability coefficient (Papp) at 1 h, 50 μM in data set [4] was determined as 6 ×10⁻⁶ cm/s.
Take `COCc1nn(Cc2ccc(Cn3ccccc3=O)cn2)cc1C(=O)NCc1c(C#N)ccc(OC)c1F` [Example 51, N-[(6-cyano-2-fluoro-3-methoxyphenyl)methyl]-3-(methoxymethyl)-1-({5-[(2-oxopyridin-1-yl)methyl]pyridin-2-yl}methyl)pyrazole-4-carboxamide]: the IC50 is 0.0213 µM at Human plasma kallikrein [1], above 40 µM at Human FXIa, above 4 µM on Human KLK1 and above 4 µM at Human Factor XIIa. For the same molecule, the microsomal CLint at 5 μM was found to be 25 µL/min/mg in data set [2] and 30 µL/min/mg in data set [3]. In data set [4], this molecule yielded an apparent permeability (Papp) at 1 h, 50 μM of 3 ×10⁻⁶ cm/s.
Regarding `COCc1nn(Cc2ccc(Cn3ccccc3=O)nc2)cc1C(=O)NCc1c(C#N)ccc(OC)c1F` [Example 52, N-[(6-cyano-2-fluoro-3-methoxyphenyl)methyl]-3-(methoxymethyl)-1-({6-[(2-oxopyridin-1-yl)methyl]pyridin-3-yl}methyl)pyrazole-4-carboxamide], the IC50 at Human plasma kallikrein [1] was 0.0064 µM; at Human FXIa, above 40 µM; against Human KLK1, above 4 µM; at Human Factor XIIa, above 4 µM. For the same molecule, the microsomal CLint at 5 μM was 8 µL/min/mg in data set [2] and 16 µL/min/mg in data set [3]. The molecule also registered an apparent permeability coefficient (Papp) at 1 h, 50 μM in data set [4] of 5 ×10⁻⁶ cm/s.
As to `Nc1nn(Cc2ccc(Cn3ccccc3=O)cc2)cc1C(=O)NCc1cc(Cl)ccc1-n1cnnn1` [Example 71, 3-amino-N-{[5-chloro-2-(1,2,3,4-tetrazol-1-yl)phenyl]methyl}-1-({4-[(2-oxopyridin-1-yl)methyl]phenyl}methyl)pyrazole-4-carboxamide], the IC50 on Human plasma kallikrein [1] was 0.0003 µM; at Human FXIa, 4.6 µM; against Human KLK1 it was above 4 µM; at Human Factor XIIa it was above 4 µM. The microsomal CLint at 5 μM in data set [2] and in data set [3] was 17 µL/min/mg each time. The molecule further registered a Papp at 1 h, 50 μM in data set [4] of 1 ×10⁻⁶ cm/s.
A word on the Ki: it is the dissociation constant of the complex between target and ligand, obtained from inhibition or displacement. Low readings indicate tighter binding, high ones weaker binding. As for `COc1ccc(-n2cnnn2)c(CNC(=O)c2cn(Cc3ccc(N4CCCC4)nc3)nc2C(F)(F)F)c1F` [Example 83, N-{[2-fluoro-3-methoxy-6-(1,2,3,4-tetrazol-1-yl)phenyl]methyl}-1-{[6-(pyrrolidin-1-yl)pyridin-3-yl]methyl}-3-(trifluoromethyl)pyrazole-4-carboxamide], the half-inhibitory concentration (IC50) at Human plasma kallikrein [1] was 0.0003 µM; against Human FXIa, 0.23 µM; on Human KLK1, above 40 µM; on Human Factor XIIa, above 40 µM. Also, the Ki at Human plasma kallikrein [5] was 0.00053 µM. On Human plasma kallikrein [5], this molecule came in with an Alpha of 2.24. Also, the Papp at 1 h, 50 μM in data set [4] was determined as 23 ×10⁻⁶ cm/s.
With `COCc1nn(Cc2cnc(N3CCC(F)(F)C3)nc2)cc1C(=O)NCc1cc(OC)ccc1-n1cnnn1` [Example 88, 1-{[2-(3,3-difluoropyrrolidin-1-yl)pyrimidin-5-yl]methyl}-N-{[5-methoxy-2-(1,2,3,4-tetrazol-1-yl)phenyl]methyl}-3-(methoxymethyl)pyrazole-4-carboxamide], the concentration for half-maximal inhibition (IC50) was 0.0083 µM on Human plasma kallikrein [1], 4.88 µM against Human FXIa, above 40 µM against Human KLK1 and above 40 µM at Human Factor XIIa. This molecule also had a Ki at Human plasma kallikrein [5] of 0.0029 µM.
For the molecule `COc1cccc(CNC(=O)c2cn(Cc3ccc(Cn4ccccc4=O)cc3)nc2N)c1F` [Reference Example B, 3-Amino-1-[4-(2-oxo-2H-pyridin-1-ylmethyl)-benzyl]-1H-pyrazole-4-carboxylic acid 2-fluoro-3-methoxy-benzylamide, reference compound], the half-maximal inhibitory concentration (IC50) on Human FXIa was above 40 µM; against Human KLK1 it was above 10 µM; at Human Factor XIIa, above 40 µM. The same molecule gave a Ki at Human plasma kallikrein [5] of 0.0067 µM. For the same molecule, the Alpha at Human plasma kallikrein [5] is on record as 48.
Turning to `COCc1nn(Cc2ccc(Cn3cccn3)cc2)cc1C(=O)NCc1cccc(Cl)c1` [Reference Example I, reference compound], the IC50 is 2.02 µM at Human plasma kallikrein [1], above 40 µM against Human FXIa, above 40 µM on Human KLK1 and above 40 µM on Human Factor XIIa. Further, the results for the microsomal CLint at 5 μM in data set [2] and in data set [3] were 153 µL/min/mg and 77 µL/min/mg, respectively. Further, in data set [4], the apparent permeability coefficient (Papp) at 1 h, 50 μM turned out to be 15 ×10⁻⁶ cm/s.
Consider `COCc1nn(Cc2ccc(Cn3cccn3)cc2)cc1C(=O)NCc1cccc(Cl)c1F` [Reference Example J, reference compound], for which the IC50 at Human plasma kallikrein [1] is 2.87 µM; against Human FXIa, above 40 µM; on Human KLK1 it was above 40 µM; on Human Factor XIIa it was above 40 µM. Moreover, the microsomal CLint at 5 μM in data set [2] came to 187 µL/min/mg; in data set [3], 110 µL/min/mg. In data set [4], this molecule had a Papp at 1 h, 50 μM of 12 ×10⁻⁶ cm/s.

For the origin of these results see US11180484B2, “Pyrazole derivatives as plasma kallikrein inhibitors” (KALVISTA PHARMACEUTICALS LIMITED, priority 2016, dated 2021).
